The values below come from ChEMBL document CHEMBL5291721, “A preclinical secondary pharmacology resource illuminates target-adverse drug reaction associations of marketed drugs” (Nat Commun, 2023).

Assay [1] addresses T1, Androgen receptor (Homo sapiens, UniProt P10275).
T1 sequence (P10275 whole entry): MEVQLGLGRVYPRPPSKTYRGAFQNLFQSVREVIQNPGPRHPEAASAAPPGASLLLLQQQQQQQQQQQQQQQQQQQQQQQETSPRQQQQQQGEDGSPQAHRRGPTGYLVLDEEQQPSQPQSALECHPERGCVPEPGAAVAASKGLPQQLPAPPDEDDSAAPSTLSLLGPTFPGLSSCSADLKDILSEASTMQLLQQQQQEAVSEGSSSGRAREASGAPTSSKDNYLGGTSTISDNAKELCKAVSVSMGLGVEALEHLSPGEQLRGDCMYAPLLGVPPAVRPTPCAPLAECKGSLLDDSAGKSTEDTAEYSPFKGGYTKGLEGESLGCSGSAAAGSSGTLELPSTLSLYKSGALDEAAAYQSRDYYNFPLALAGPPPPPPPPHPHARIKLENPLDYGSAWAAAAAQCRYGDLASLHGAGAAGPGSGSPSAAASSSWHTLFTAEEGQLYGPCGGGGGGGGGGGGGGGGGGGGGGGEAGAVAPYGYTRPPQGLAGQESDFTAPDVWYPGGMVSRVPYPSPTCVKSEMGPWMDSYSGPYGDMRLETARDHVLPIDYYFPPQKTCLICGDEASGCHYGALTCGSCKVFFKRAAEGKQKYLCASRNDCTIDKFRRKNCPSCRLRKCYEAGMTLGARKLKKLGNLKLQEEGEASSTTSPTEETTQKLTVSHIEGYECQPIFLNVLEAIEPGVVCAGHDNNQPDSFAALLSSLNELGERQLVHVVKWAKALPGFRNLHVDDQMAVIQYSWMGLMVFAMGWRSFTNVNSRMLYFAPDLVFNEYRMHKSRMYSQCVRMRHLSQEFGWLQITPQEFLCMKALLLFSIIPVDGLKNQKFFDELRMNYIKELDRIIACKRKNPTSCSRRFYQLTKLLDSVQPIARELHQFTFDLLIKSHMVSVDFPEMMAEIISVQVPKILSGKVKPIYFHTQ

The target of assay [2] is Sodium-dependent noradrenaline transporter (Homo sapiens, UniProt P23975).
Sequence of Sodium-dependent noradrenaline transporter (P23975 whole entry): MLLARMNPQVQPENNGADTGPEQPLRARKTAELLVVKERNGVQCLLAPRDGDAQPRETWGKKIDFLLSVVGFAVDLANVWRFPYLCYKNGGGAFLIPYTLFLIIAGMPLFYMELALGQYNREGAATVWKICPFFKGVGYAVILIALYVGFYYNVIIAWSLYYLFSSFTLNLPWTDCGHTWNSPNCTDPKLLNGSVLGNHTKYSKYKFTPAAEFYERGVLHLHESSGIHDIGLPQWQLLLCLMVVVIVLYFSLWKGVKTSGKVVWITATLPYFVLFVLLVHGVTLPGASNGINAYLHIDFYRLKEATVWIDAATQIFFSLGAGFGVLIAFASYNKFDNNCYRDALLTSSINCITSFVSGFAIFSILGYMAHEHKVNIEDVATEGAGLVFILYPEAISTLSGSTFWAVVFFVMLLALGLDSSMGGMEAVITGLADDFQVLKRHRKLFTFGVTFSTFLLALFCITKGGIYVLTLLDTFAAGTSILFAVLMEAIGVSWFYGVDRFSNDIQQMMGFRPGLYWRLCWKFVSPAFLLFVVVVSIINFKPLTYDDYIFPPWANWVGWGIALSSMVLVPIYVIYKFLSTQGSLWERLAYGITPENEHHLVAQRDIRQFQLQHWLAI
Assay [3] concerns the target Gamma-aminobutyric acid receptor subunit alpha-1 (Rattus norvegicus, UniProt P62813).
Assay [4] has as its target T2, Alpha-2C adrenergic receptor (Homo sapiens, UniProt P18825).
T2 sequence (P18825 whole entry): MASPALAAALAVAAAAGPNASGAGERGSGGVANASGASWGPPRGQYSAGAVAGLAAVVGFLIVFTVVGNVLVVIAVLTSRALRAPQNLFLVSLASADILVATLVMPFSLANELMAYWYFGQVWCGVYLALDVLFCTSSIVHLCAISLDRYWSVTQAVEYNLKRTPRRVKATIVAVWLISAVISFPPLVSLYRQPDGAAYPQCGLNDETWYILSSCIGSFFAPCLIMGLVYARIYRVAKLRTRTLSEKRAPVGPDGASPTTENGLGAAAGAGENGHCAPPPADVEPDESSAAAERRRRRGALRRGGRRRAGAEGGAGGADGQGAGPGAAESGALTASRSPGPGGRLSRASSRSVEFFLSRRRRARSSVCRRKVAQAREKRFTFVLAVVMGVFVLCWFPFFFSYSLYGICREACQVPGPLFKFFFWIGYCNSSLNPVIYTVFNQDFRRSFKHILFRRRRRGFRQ
It counts as functional.

Assay [5] concerns the target cGMP-inhibited 3',5'-cyclic phosphodiesterase 3A (Homo sapiens, UniProt Q14432). In kind it is functional.
Assay [6] deals with T3, Mu-type opioid receptor (Homo sapiens, UniProt P35372).
T3 sequence (P35372 whole entry): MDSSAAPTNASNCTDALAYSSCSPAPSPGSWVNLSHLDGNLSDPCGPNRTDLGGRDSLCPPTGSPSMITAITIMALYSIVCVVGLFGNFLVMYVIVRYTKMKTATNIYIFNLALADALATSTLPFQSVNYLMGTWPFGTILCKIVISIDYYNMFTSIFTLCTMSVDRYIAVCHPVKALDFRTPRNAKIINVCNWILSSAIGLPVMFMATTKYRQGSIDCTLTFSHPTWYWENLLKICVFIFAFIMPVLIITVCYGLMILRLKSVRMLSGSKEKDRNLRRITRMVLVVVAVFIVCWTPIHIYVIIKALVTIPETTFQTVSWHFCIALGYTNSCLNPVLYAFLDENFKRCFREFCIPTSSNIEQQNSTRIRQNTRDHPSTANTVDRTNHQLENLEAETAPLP
Assay [7] deals with Vasopressin V2 receptor (Homo sapiens, UniProt P30518).
Sequence of Vasopressin V2 receptor (P30518 whole entry): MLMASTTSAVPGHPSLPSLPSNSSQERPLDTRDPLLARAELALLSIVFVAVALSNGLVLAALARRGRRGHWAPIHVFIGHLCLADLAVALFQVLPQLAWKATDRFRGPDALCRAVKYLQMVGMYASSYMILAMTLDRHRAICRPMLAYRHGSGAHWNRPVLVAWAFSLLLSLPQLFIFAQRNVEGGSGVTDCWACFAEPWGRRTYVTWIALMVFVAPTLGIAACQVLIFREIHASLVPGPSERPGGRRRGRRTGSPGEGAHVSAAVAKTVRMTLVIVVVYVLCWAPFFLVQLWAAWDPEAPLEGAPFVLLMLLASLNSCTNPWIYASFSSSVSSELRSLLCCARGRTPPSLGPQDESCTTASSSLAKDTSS
Assay [8] addresses T4, Alpha-1A adrenergic receptor (Homo sapiens, UniProt P35348).
T4 sequence (P35348 whole entry): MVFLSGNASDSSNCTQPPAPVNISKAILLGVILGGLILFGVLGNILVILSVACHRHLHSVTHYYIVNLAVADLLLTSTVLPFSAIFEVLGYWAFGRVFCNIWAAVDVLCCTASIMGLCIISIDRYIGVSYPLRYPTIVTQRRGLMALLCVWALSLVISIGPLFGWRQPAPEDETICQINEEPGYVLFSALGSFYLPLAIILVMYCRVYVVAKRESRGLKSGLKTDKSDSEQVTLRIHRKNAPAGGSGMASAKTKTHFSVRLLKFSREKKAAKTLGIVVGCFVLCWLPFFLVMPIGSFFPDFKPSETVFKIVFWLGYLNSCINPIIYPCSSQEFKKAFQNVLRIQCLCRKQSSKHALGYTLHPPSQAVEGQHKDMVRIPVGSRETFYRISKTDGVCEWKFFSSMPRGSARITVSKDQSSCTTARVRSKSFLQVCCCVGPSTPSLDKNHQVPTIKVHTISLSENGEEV
It counts as functional, cell-based.

Assay [9] deals with T5, Muscarinic acetylcholine receptor M2 (Homo sapiens, UniProt P08172).
T5 sequence (P08172 whole entry): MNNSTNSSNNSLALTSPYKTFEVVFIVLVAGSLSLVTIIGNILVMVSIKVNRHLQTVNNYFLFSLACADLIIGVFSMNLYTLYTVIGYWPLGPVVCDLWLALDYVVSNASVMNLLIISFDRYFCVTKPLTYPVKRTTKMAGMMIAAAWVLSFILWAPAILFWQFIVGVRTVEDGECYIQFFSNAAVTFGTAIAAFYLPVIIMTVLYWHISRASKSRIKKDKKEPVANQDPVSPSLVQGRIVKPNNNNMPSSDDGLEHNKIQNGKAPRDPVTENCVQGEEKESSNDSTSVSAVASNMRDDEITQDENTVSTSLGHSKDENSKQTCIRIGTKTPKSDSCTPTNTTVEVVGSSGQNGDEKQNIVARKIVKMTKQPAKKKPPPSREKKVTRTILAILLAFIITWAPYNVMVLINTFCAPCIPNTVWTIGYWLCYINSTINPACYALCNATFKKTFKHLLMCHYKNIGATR
In kind it is functional, cell-based.

The target of assay [10] is T3, Mu-type opioid receptor. The experiment in a line: biochemical. It counts as functional.
The target in assay [11] is 5-hydroxytryptamine receptor 2B (Homo sapiens, UniProt P41595). It counts as functional, cell-based.
Sequence of 5-hydroxytryptamine receptor 2B (P41595 whole entry): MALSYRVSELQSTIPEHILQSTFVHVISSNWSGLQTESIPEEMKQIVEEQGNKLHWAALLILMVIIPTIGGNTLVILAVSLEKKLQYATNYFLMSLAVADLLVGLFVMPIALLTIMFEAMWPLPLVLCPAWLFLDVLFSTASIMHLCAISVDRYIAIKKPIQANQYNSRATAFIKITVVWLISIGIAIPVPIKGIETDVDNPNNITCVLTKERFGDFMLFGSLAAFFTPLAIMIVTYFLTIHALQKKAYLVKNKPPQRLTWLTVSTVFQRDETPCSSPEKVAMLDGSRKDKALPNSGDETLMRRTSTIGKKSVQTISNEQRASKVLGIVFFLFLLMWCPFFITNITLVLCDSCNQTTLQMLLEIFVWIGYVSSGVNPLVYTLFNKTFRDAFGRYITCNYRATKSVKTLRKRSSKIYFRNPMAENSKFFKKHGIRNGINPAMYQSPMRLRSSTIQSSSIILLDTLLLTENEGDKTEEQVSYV
Note: assay procedure not described here.

Sequence of Gamma-aminobutyric acid receptor subunit alpha-1 (P62813 whole entry): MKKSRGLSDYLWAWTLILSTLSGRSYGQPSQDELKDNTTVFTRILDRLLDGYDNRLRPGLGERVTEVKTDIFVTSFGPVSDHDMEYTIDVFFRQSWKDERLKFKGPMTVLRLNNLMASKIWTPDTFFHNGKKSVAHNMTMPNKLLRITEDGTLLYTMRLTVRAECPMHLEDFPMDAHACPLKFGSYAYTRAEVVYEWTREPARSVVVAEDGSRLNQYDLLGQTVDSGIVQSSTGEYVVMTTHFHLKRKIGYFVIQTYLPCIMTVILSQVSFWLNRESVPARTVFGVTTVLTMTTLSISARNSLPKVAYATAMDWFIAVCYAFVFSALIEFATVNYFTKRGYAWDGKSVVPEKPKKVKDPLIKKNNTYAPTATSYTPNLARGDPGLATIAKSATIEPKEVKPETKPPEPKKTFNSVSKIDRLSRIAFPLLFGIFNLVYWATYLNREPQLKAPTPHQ
Sequence of cGMP-inhibited 3',5'-cyclic phosphodiesterase 3A (Q14432 whole entry): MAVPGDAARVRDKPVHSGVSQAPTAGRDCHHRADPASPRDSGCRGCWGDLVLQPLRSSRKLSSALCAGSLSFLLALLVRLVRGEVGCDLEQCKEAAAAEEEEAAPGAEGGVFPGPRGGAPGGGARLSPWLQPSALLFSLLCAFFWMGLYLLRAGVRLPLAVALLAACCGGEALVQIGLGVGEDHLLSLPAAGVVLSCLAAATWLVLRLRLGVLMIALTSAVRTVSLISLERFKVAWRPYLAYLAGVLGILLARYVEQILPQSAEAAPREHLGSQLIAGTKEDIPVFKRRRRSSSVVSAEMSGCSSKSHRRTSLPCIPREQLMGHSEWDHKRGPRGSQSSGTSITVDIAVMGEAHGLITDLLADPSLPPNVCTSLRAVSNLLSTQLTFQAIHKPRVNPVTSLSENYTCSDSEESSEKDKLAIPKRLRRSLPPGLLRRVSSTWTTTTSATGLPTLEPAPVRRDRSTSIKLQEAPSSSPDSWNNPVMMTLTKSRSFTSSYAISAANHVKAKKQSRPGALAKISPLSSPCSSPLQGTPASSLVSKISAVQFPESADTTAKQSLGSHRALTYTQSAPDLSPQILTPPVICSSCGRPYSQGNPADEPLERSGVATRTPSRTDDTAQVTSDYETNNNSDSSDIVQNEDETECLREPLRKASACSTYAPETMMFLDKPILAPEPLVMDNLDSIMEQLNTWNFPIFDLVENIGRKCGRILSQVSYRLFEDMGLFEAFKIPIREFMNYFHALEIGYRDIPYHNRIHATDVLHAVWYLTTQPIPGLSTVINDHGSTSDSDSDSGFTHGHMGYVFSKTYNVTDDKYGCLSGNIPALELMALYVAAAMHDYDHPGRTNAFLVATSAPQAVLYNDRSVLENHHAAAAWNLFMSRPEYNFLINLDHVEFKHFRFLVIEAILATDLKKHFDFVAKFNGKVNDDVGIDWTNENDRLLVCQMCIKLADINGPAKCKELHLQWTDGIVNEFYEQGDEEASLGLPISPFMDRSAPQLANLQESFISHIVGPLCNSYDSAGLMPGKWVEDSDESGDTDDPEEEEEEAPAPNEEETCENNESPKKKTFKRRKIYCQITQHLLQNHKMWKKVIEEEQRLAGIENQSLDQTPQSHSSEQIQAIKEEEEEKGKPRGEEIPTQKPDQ

As for `COc1cccc(C(=O)CCN[C@@H](C)[C@H](O)c2ccccc2)c1` [OXYFEDRINE], the concentration at half-maximal activity (AC50) is over 30 µM in assay [1] and 2.65 µM in assay [2].

As for `C[C@@H]1C[C@H]2[C@@H]3C[C@H](F)C4=CC(=O)C=C[C@]4(C)[C@H]3[C@@H](O)C[C@]2(C)[C@@]1(O)C(=O)CO` [PARAMETHASONE], the AC50 in assay [3] is over 30 µM; in [1], 3.48 µM; in assay [2], over 30 µM.

As to `CC(OCCN1CCCCCC1)(c1ccccc1)c1ccc(Cl)cc1` (stereo unspecified) [SETASTINE], the concentration at half-maximal activity (AC50) in [1] was over 30 µM; in assay [2] it was 5.82 µM.

In the case of `Cc1ncc2c(c1O)COC2c1ccc(Cl)cc1` (stereo unspecified) [CICLETANINE], the AC50 in [1] and in [2] was over 30 µM throughout.

For the molecule `c1ccc2c(SC3=NCCN3)c[nH]c2c1` [TINAZOLINE], the AC50 in assay [1] was over 30 µM; in assay [2], 5.56 µM.

As for `CC(=O)[C@]1(N)Cc2c(O)c3c(c(O)c2[C@@H](O[C@H]2C[C@H](O)[C@H](O)CO2)C1)C(=O)c1ccccc1C3=O` [AMRUBICIN], the AC50 in [3], in [1] and in assay [2] was over 30 µM throughout.

Regarding `Clc1ccc(C(Cn2ccnc2)OCc2csc3c(Cl)cccc23)c(Cl)c1` (stereo unspecified) [SERTACONAZOLE], the results for the AC50 in assay [1] and in assay [2] were 0.0201 µM and 3.3 µM, respectively.

As to `O=C(CCC/C=C\C[C@@H]1[C@@H](CC[C@@H](O)CCc2ccccc2)[C@H](O)C[C@@H]1O)OCCCCO[N+](=O)[O-]` [LATANOPROSTENE BUNOD], the concentration at half-maximal activity (AC50) in [3], in assay [1] and in assay [2] was over 30 µM in each case.

Turning to `CC(=O)O[C@]1(C(C)=O)CC[C@H]2[C@@H]3C=C(Cl)C4=CC(=O)[C@@H]5C[C@@H]5[C@]4(C)[C@H]3CC[C@@]21C` [CYPROTERONE ACETATE], the AC50 was over 30 µM in assay [3]; over 10 µM in assay [4]; over 30 µM in assay [5]; over 30 µM in [2]; over 30 µM in assay [6]; over 30 µM in assay [7].

Regarding `COC(=O)C[C@](O)(CCCC(C)(C)O)C(=O)O[C@@H]1C(OC)=C[C@]23CCCN2CCc2cc4c(cc2[C@H]13)OCO4` [OMACETAXINE MEPESUCCINATE], the AC50 in assay [3], in assay [1] and in [2] was over 30 µM throughout.

Turning to `NC(=O)[C@@H]1CC[C@@H]2CN1C(=O)N2OS(=O)(=O)O` [AVIBACTAM], the AC50 in assay [1] and in assay [2] was over 30 µM throughout.

In the case of `Cc1oc(=O)oc1COC(=O)[C@@H]1N2C(=O)[C@@H](NC(=O)[C@H](N)c3ccccc3)[C@H]2SC1(C)C` [LENAMPICILLIN], the concentration at half-maximal activity (AC50) in assay [3], in [1] and in assay [2] was over 30 µM in each case.

On to `CC(C)(C)NC(=O)N[C@H](C(=O)N1C[C@H]2[C@@H]([C@H]1C(=O)NC(CC1CCC1)C(=O)C(N)=O)C2(C)C)C(C)(C)C` (stereo partly specified) [BOCEPREVIR], for which the half-maximal activity concentration (AC50) in assay [3], in assay [1] and in assay [2] was over 30 µM each time.

`CCCSc1nc(N[C@@H]2C[C@H]2c2ccc(F)c(F)c2)c2nnn([C@@H]3C[C@H](OCCO)[C@@H](O)[C@H]3O)c2n1` [TICAGRELOR]: the results for the AC50 in assay [3], in assay [1] and in assay [2] were over 30 µM, over 30 µM and 14.8 µM, respectively.

Take `O=C(O)[C@@H]1C[C@@H](O)CN1`: the AC50 in assay [3], in assay [1] and in assay [2] was over 30 µM throughout.

Take `CC(=O)O[C@H]1Cc2ccccc2N(C(N)=O)c2ccccc21` [ESLICARBAZEPINE ACETATE]: the AC50 in assay [1] and in [2] was over 30 µM each time.

In the case of `COc1cc(C)c2c(Oc3cccc(C(F)(F)F)c3)c(OC)cc(NC(C)CCCN)c2n1` (stereo unspecified) [TAFENOQUINE], the AC50 was over 30 µM in assay [3], over 30 µM in [1] and 2.26 µM in [2].

Regarding `CC(=O)OC[C@H]1O[C@@H](n2ncc(=O)[nH]c2=O)[C@H](OC(C)=O)[C@@H]1OC(C)=O` [AZARIBINE], the AC50 in assay [3], in [1] and in assay [2] was over 30 µM each time.

With `CC1(CCN2CCCCC2)C(=O)CCc2ccccc21` (stereo unspecified) [NEPINALONE], the AC50 in assay [1] and in assay [2] was over 30 µM each time.

As for `COc1ccc(OC)c(C(O)C(C)N)c1` (stereo unspecified) [METHOXAMINE], the AC50 in assay [1] and in [2] was over 30 µM in each case.

Turning to `NC[C@H]1CC[C@H](C(=O)Oc2ccc(CCC(=O)O)cc2)CC1` [CETRAXATE], the AC50 in assay [3], in assay [4], in [8], in assay [9], in [5] and in assay [2] was over 30 µM in each case. This molecule gave a concentration at half-maximal activity (AC50) in [10] of over 30 µM.

Regarding `CN1CCCN(C(c2ccccc2)c2ccc(Cl)cc2)CC1` (stereo unspecified) [HOMOCHLORCYCLIZINE], the AC50 was over 30 µM in assay [3], over 30 µM in assay [1] and 12.9 µM in [2].

`C[C@H](N[C@@H](CCc1ccccc1)C(=O)O)C(=O)N1Cc2ccccc2C[C@H]1C(=O)O`: the concentration at half-maximal activity (AC50) in [3], in [1] and in assay [2] was over 30 µM in each case.

Regarding `CCCn1cnc2c1c(=O)n(CCCCC(C)=O)c(=O)n2C` [PROPENTOFYLLINE], the AC50 in assay [3], in [1] and in [2] was over 30 µM each time.

Turning to `CC(O)(CS(=O)(=O)c1ccc(F)cc1)C(=O)Nc1ccc(C#N)c(C(F)(F)F)c1` (stereo unspecified) [BICALUTAMIDE], the AC50 in assay [3] was over 30 µM; in assay [4], 13 µM; in assay [8] it was over 30 µM; in assay [9] it was over 10 µM; in assay [5], over 10 µM; in [2] it was over 30 µM. Also, the values for the half-maximal activity concentration (AC50) in assay [11], in assay [6] and in [7] were over 10 µM, over 10 µM and over 30 µM, respectively.

For the molecule `CC(=O)OCC(=O)[C@@]1(O)CC[C@H]2[C@@H]3CCC4=CC(=O)CC[C@]4(C)[C@H]3[C@@H](O)C[C@@]21C` [HYDROCORTISONE ACETATE], the concentration at half-maximal activity (AC50) in assay [3] and in assay [2] was over 30 µM throughout.

The AC50 is the concentration giving half of the maximal activity seen. A high value points to weaker potency.
